The conditions of data set [1]: in vivo; cited from earlier work.
Data set [2] is classed as in vivo, patients. The procedure:
In one clinical trial, the absorption of the powdered colistimethate sodium into the airways of the lungs was measured (specific airway conductance). […] This is a very high uptake, and more than would be expected from a powdered drug. […] In a second trial, patients were given a premedication dose of 200 micrograms of salbutamol. […] In an alternative medication regime, the salbutamol can be mixed into the same capsule as the colistin sulphomethate sodium.

The test system of data set [3] is gram negative microbial organisms. Description: Synergy of activity of the mixture of components. In kind it is cell-based. The source says:
Colistimethate sodium is a negatively charged molecular ion with positively charged sodium counter ions. […] There are five sulphomethate groups (CH2—OS02^−). U.S. Pat. No. 5,767,068 refers to variable groups Rx and R2; Rx is identified as 6-methyloctanoyl or 6-methylheptanoyl, and R2 as sec-butyl, isobutyl or isopropyl.

Data set [4] is described as follows: Water content (Karl-Fisher) of colistimethate sodium powder and gelatin capsules in various storage conditions. The format is physicochemical. Also noted: unit not given here. Particulars: n = 3. The procedure:
Aliquots of colistimethate sodium encapsulated in gelatin capsules were stored in relative humidity ranging from about 20% RH to about 80% RH at ambient temperature conditions. Encapsulated colistimethate sodium was tested for moisture content and piercing performance at several time points. For example, the capsules were tested at 23° C. at 30% RH, 23° C. at 40% RH, 23° C. at 48% RH, 23° C. at 75% RH at different time points such as 1, 2, 4, and 24 hrs. Storage conditions were generated using qualified stability chambers set at the target temperature 23° C.±2° C. and the set relative humidity ±5% RH. Ambient laboratory conditions were determined to be at about 23° C.±2° C., 48% RH. Ambient conditions were verified using calibrated NIST thermo-Hygrometers. Average moisture content of colistimethate sodium as well as the moisture content of gelatin capsules was determined using Karl-Fisher determination.

“colistin sulphomethate sodium [colistimethate sodium]”: in data set [1], the “absorption into the bloodstream” value is reported as “poorly absorbed”. Moreover, in data set [2] (human, in vivo), the “irritation of the lungs” value was “does not cause irritation”. Moreover, the “specific airway conductance, whole body plethysmography, compared with traditional nebulised colistimethate sodium” value in data set [2] (human, in vivo) is “did not show any noticeable difference”. Besides, the “activity of the mixture of components against gram negative microbial organisms” value in data set [3] was “synergy of activity”. Further, the “Water Content (KF)” value in data set [4] (23° C./30% RH, 0 hr) was found to be 5.44; in data set [4] (23° C./30% RH, 1 hr) it was 5.28; in data set [4] (23° C./30% RH, 2 hr), 5.85; in data set [4] (23° C./30% RH, 4 hr) it was 5.94; in data set [4] (23° C./30% RH, 24 hr), 6.54; in data set [4] (23° C./40% RH, 0 hr), 5.44. For the same compound, the “Water Content (KF)” value is 5.96 in data set [4] (23° C./40% RH, 1 hr); 5.81 in data set [4] (23° C./40% RH, 2 hr); 6.51 in data set [4] (23° C./40% RH, 4 hr); 6.50 in data set [4] (23° C./40% RH, 9 hr); 9.54 in data set [4] (23° C./40% RH, 24 hr); 5.44 in data set [4] (23° C./48% RH, 0 hr). Besides, the “Water Content (KF)” value is 5.68 in data set [4] (23° C./48% RH, 1 hr); 6.39 in data set [4] (23° C./48% RH, 2 hr); 6.64 in data set [4] (23° C./48% RH, 4 hr); 14.49 in data set [4] (23° C./48% RH, 24 hr); 5.44 in data set [4] (23° C./75% RH, 0 hr); 7.04 in data set [4] (23° C./75% RH, 1 hr). Also, the “Water Content (KF)” value in data set [4] (23° C./75% RH, 2 hr) is 6.96; in data set [4] (23° C./75% RH, 4 hr), 10.74.

Regarding `CC(C)(C)NCC(O)c1ccc(O)c(CO)c1` (stereo not shown) [salbutamol], the airway conductance entry in data set [2] (premedication dose of 200 micrograms, second trial) is reported as “appeared to improve airway conductance”.
